Reference: patent US6080542A, “Plant peptide transport gene” (priority 1997, dated 2000)

Legend:
PB1X-9B = assay: Growth on peptides as amino acid source, peptide transport mutant; type: cell-based, Saccharomyces cerevisiae; conditions: PBIX-9B; 80 μM peptide in SC medium, 30° C., 72 hrs
Experimental: (§1) In addition, untransformed PB1X-9B, PB1X-9B transformed with plasmid pJP9 encoding the above-described yeast peptide transport gene, PB1X-2AΔ and PB1X-2A, the ptr2^+ parental strain to PB1X-2AΔ strain, were also assayed. Each strain was grown overnight in SC media plus uracil (non-transformed) or minus uracil (transformed) plus amino acids to stationary phase and harvested by centrifugation. Cells were then washed twice with sterile dH2 O and resuspended at 5×10^6 cells/ml. 5 μl of each suspension was applied as a small spot to a 2 ml volume of solid media in a 24 well plate. All peptides were suspended in sterile, deionized water and added to an equal volume of SC medium plus the appropriate amino acids and uracil when required. The medium for each assay thus consisted of SC medium plus or minus uracil supplemented with 80 μM of a specific peptide and auxotrophic requirements minus the amino acid components of the added peptide. The plates were incubated at 30° C. for 72 hrs. and then scored for growth.

PB1X-9B (pJP9) = assay: Growth on peptides, mutant transformed with yeast peptide transport gene; type: cell-based, Saccharomyces cerevisiae
Experimental: as §1

PB1X-9B (pPTF4) = assay: Growth on peptides, mutant transformed with plant gene ATPTR2A; type: cell-based, Saccharomyces cerevisiae
Experimental: as §1

PB1X-2A = assay: Growth on peptides, parental strain; type: cell-based, Saccharomyces cerevisiae; conditions: data not shown
Experimental: as §1, with “Thus, the peptide transport mutant PB1X-9B and deletion strain PB1X-2AΔ transformed with plasmids pPTF4 (ATPTR2A) or pDTF1 (ATPTR2B) were grown on various peptides to assess the specificity of the plant peptide transporter. In” for “In”

ATPTR2Ap = assay: Uptake of L-leucyl-L-[3H]leucine and competition, PB1X-9B[pPTF4]; conditions: PB1X-9B[pPTF4]; pH 5.5; dileucine and leucine at 100-fold
ATPTR2Ap, sequence (as listed by the source): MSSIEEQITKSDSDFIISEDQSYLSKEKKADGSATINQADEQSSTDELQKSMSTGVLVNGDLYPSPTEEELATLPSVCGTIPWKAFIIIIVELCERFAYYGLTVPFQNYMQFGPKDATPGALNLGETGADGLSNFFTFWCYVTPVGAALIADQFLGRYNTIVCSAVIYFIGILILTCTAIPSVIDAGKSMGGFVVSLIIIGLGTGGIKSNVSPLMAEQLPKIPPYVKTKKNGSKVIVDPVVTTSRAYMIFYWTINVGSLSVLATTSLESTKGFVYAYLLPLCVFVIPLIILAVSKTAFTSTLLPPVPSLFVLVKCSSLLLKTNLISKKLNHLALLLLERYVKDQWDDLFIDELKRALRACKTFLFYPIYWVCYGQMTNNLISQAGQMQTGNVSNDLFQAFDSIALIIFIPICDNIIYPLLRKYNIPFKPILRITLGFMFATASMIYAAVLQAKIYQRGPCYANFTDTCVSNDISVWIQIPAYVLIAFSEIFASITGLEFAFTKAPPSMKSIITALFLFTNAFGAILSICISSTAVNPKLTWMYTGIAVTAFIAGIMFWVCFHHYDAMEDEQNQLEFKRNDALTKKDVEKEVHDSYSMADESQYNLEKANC
Experimental: The kinetics of ATPTR2A-mediated transport of peptides in yeast was evaluated by transforming pPTF4 into the S. cerevisiae peptide transport mutant, PB1X-9B and measuring the uptake of tritiated Leu-Leu dipeptide.
(§2) L-leucyl-L [^3 H]leucine trifluoroacetic acid (TFA) was synthesized by standard solution phase techniques (Naider, F. et al., J. Biol. Chem. 249:9-20 (1974)). Uptake of L-leucyl-L-[H]leucine was performed as by Island, M. D. et al (J. Bacteriol. 169:2132-2136 (1987)), with the following modifications. Cells were grown to late log phase (26×10^7 cells/ml) overnight in SC with 2% glucose, 1 mg/ml allantoin plus amino acids to supplement auxotrophic markers. To induce peptide transport. 5-15 ml from this culture was added to 100 ml fresh medium such that the density was 3.0×10^6 cells/ml. This culture was allowed to grow (approx. 2 hrs.) to a density of 6.0×10^6 cells/ml and then harvested by centrifugation. The pelleted cells were washed twice with 10 ml cold dH2 O and suspended in cold 2% glucose to a final concentration of 2×10^8 cells/ml and incubated at 30° C. for 15 min. 500 μl of cells were then added to an equal volume of reaction mixture (30° C.) and incubated at 30°-C. At 20, 40, 60, 90, and 120 sec. intervals, 190 μl portions were removed, filtered over filters (pore size, 0.45 μm; GN-6; Gelman Sciences, Inc., Ann Arbor, Mich.) and washed 2 times with 5 ml cold, sterile dH2 O and once with 5 ml dH2 O at room temperatures. Filters were placed in scintillation vials with 5 ml of Budget-Solve scintillation cocktail (Research Products International Corp., Mount Prospect, Ill.) and counted (liquid scintillation counter; LS-7000; Beckman Instruments, Inc., Fullerton, Calif.). The final concentration of the components in the uptake assay was 1% glucose, 40 mM sodium citrate-potassium phosphate buffer (pH 5.5), and 1.5×105 M L-leucyl-L-[^3 H]leucine (specific activity, 10 mCi/mmole). Uptake is expressed as nanomoles per mg dry weight.

[1] = target: T1, yeast peptide transport system (Saccharomyces cerevisiae, UniProt P32901); assay: Competition for L-leucyl-L-[3H]leucine uptake, PB1X-9B[pJP9]; type: cell-based; conditions: pH 5.5
T1 construct: The ptr2 gene encodes a 602 amino acid hydrophobic polypeptide with 12 putative hydrophobic segments; expressed in transfected cells; host or cells: S. cerevisiae peptide transport mutant PB1X-9B (ptr2-2) transformed with pJP9
T1 sequence (P32901 1-601): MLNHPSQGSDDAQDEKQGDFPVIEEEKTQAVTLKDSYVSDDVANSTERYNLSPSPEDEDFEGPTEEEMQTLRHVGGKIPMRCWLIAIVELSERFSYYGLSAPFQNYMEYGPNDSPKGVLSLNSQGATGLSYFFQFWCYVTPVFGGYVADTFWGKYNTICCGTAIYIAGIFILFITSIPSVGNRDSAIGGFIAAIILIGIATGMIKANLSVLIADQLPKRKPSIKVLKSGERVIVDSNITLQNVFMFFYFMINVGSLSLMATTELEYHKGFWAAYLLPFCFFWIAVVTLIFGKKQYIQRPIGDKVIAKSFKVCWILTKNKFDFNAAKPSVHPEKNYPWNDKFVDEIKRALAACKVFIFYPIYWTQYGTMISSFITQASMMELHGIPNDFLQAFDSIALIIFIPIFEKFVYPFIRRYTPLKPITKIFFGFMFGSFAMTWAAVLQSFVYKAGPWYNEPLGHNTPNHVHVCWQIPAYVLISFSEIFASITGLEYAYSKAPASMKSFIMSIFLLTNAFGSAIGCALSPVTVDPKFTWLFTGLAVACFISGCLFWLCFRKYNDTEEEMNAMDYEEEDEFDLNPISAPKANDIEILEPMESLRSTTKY
Experimental: as §2

Met-Met-Leu: tripeptide (MML)
growth on peptide (PB1X-9B): - | growth on peptide (in words) (PB1X-9B (pJP9); PB1X-9B transformed with pJP9): showed growth on all peptides except | growth on peptide (PB1X-9B (pJP9); PBIX-9B (pJP9), 80 μM peptide in SC medium, 30° C., 72 hrs): - | growth on peptide (PB1X-9B (pPTF4); PBIX-9B (pPTF4), 80 μM peptide in SC medium, 30° C., 72 hrs): - | growth on / utilization of peptide (in words) (PB1X-9B (pPTF4); plant peptide transport gene (pPTF4)): able to utilize | utilization of peptide for growth (in words) (PB1X-2A): did not utilize | competition for uptake of [3H]-dileucine (ATPTR2Ap): uptake competition similar to that seen for Leu-Leu | competition for uptake of [3H]-dileucine [1]: uptake competition similar to that seen for Leu-Leu
